Assay results taken from US11478466B2, “Small molecule promoting osteoblast differentiation” (Cornell University, priority 2019, dated 2022).
Where two headings read alike, the source gives them in different places.

What was measured:
p38 MAPK [1] = assay: Western blotting of p38 MAPK in BRITER cells; format: cell-based, mouse; details: BMP-2/BMP-4 repression by tamoxifen
Procedure: (§1) Cells were maintained in DMEM with 10% FBS. For analysis of DIPQUO effects independent of BMP signaling, BMP-2 and BMP-4 knockdown was achieved by treating cells overnight with 1 μM 4-hydroxytamoxifen (4-OHT), followed by continued maintenance in 1 μM 4-OHT. Cells were serum-starved for at least 6 hours before treatment with recombinant BMP protein or DIPQUO as noted in figure legends.
(§2) Whole cell extracts were collected from C2C12 or BRITER cells in complete lysis buffer (20 mM Tris, 150 mM NaCl, 50 mM NaF, 1% NP40 substitute, HALT protease inhibitor cocktail (ThermoScientific). Proteins were resolved by electrophoresis on pre-cast 10% NuPage Bis-Tris gels (Invitrogen) and transferred to PVDF membranes (Bio-Rad). Membranes were blocked in 5% BSA-TBS-0.5% Tween-20 for 15 minutes, then incubated at 4° overnight with primary antibodies. Antibodies used were: rabbit anti-phospho-p38 MAPK (cat. no. 9211), anti-p38 MAPK XP (8690), anti-phospho-SMAD1/5 (9516), anti-SMAD1 XP (6944), anti-phospho-SMAD2/3 (8828), anti-SMAD2/3 XP (8685), anti-phospho-JNK (4668), anti-SAPK/JNK (9252), anti-phospho-Akt XP (4060), pan anti-Akt (4691), anti-phospho ERK p42/p44 (4377), anti-ERK p42/p44 (9102), anti-phospho-MKK3/6 (12280), anti-MKK3 (8535), anti-phospho-TAK1 (4531), anti-TAK1 (5206), anti-HA (3274), and anti-FLAG (14793); all from Cell Signaling); and mouse anti-p38α (cat. no. […]

[2] = tested on: alkaline phosphatase (ALP); assay: cells; details: Mus musculus; for activation at 10 µM: C2C12, 96 h
Source text: To identify small-molecule activators of osteoblast differentiation, we measured ALP activity using a fluorescent emission assay as a reporter for enzymatic digestion of ALP substrate in lysates derived from C2C12 myoblasts. […] Therefore, before screening, the assay was calibrated using recombinant human BMP4 protein as a positive control. Compounds were robotically deposited onto 384-well plates and then overlaid by C2C12 cells for a 4-day culture period, followed by lysis and fluorescent substrate assays (FIG. 1A; Table 1). To ensure uniformity, C2C12 cells were maintained in normal culture medium containing 10% fetal bovine serum, and lysis and substrate addition achieved using a microplate multidrop device. The primary screen (Table 2) encompassed greater than 47,000 small molecules tested at a final concentration of 10 μM.
For the primary screen, library compounds were distributed onto 384-well microplates (Greiner Bio-One 781091) at a final concentration of 10 μM in culture medium using a Perkin Elmer Janus automated workstation and WinPrep Version 4.8.3.315. Positive (rhBMP4, 1 ng/ml, R&D Systems) and negative controls (DMSO, 0.2%) were manually added to each plate by multichannel pipet. C2C12 cells were seeded onto compounds and controls at a density of 2000/well using a Thermo Multidrop Combi reagent dispenser and cultured for 4 days at 37° C., 5% CO2. Culture medium was aspirated using a BioTek EL406 plate washer and cells were lysed in RIPA buffer (Millipore 20-188) at ambient temperature for 10 minutes. 10 μl fluorescent alkaline phosphatase substrate (AttoPhos, Promega S1000) was added to lysates and incubated an additional 10 minutes before measuring the fluorescence (Excitation 450 nm/Emission 580 nm) on a BioTek Synergy Neo2 stacking microplate reader. Plates were processed and relative fluorescence raw values measured in stacks of 10-20. The data were processed using Collaborative Drug Discovery web-based software (CDD Vault) to determine Z score calculated on DMSO control wells and percent activation normalized against positive and negative controls (NPA). Cherry-picked hit candidates were re-tested in concentration response experiments, from which 4 candidates were chosen and purchased for further testing from either ChemBridge or Enamine, based on availability.
We also purchased a library of 154 structural chemical analogs assembled by ChemBridge Corp. from available screening library compounds.

JNK p54 = assay: Western blotting of JNK in C2C12 cells; format: cell-based, mouse
Procedure: (§3) Whole cell extracts were collected from C2C12 or BRITER cells in complete lysis buffer (20 mM Tris, 150 mM NaCl, 50 mM NaF, 1% NP40 substitute, HALT protease inhibitor cocktail (ThermoScientific). Proteins were resolved by electrophoresis on pre-cast 10% NuPage Bis-Tris gels (Invitrogen) and transferred to PVDF membranes (Bio-Rad). Membranes were blocked in 5% BSA-TBS-0.5% Tween-20 for 15 minutes, then incubated at 4° overnight with primary antibodies. Antibodies used were: rabbit anti-phospho-p38 MAPK (cat. no. 9211), anti-p38 MAPK XP (8690), anti-phospho-SMAD1/5 (9516), anti-SMAD1 XP (6944), anti-phospho-SMAD2/3 (8828), anti-SMAD2/3 XP (8685), anti-phospho-JNK (4668), anti-SAPK/JNK (9252), anti-phospho-Akt XP (4060), pan anti-Akt (4691), anti-phospho ERK p42/p44 (4377), anti-ERK p42/p44 (9102), anti-phospho-MKK3/6 (12280), anti-MKK3 (8535), anti-phospho-TAK1 (4531), anti-TAK1 (5206), anti-HA (3274), and anti-FLAG (14793); all from Cell Signaling); and mouse anti-p38α (cat. no. 33-1300), anti-p38β (33-8700; both ThermoFisher) and anti-β-actin (Sigma A1978). Proteins were visualized with HRP-conjugated secondary antibodies (Bio-Rad) with WestPico (ThermoFisher) or Immobilon (Millipore) chemiluminescence reagents. Images were obtained and analyzed for relative densitometric relationships on a LI-COR C-DiGit scanner using Image Studio software.

[3] = tested on: PI3K/Akt, ERK, TGF-β/SMAD2/3, BMP/SMAD1/5/9; assay: Western blotting of other signaling effectors in C2C12 cells; format: cell-based, mouse
Procedure: as §3

[4] = tested on: alkaline phosphatase (ALP); assay: Flow cytometric analysis of ALP-positive C2C12 cell population; format: cell-based, mouse; details: C2C12, day 2; baseline approximately 4% in DMSO-treated cells
Procedure: C2C12 cells were treated for 2 days with 10 μM DIPQUO or structural analogs, 1 ng/ml rhBMP4, or with inhibitors as noted in figure legends, and then fixed briefly in 70% acetone/10% formaldehyde/20% citrate. Staining was achieved using the leukocyte alkaline phosphatase kit (Sigma 86R-1KT) according to the manufacturer's instructions. Expression of ALP was confirmed and quantified by flow cytometric analysis, using an Accuri C6 flow cytometer. Briefly, control- or DIPQUO-treated C2C12 cells were detached and harvested on day 2 using PBS-based enzyme-free cell detachment solution (ThermoFisher). 2×10^5 cells were incubated on ice for 30 minutes with 10 μl APC-conjugated ALPL antibody (R&D Systems), and washed in ice-cold PBS before analysis. Live cells were gated and analyzed in CFlow Plus software and then data was converted to FlowJo to achieve publication-level resolution. […] After an additional 3 days, cells were either fixed and stained for ALP expression or analyzed for ALP activity using the AttoPhos Substrate kit. Hemagglutinin and FLAG epitope-tagged MKK3 (pMT2-HA-MKK3) and MKK6 (pcDNA3-FLAG-MKK6) constructs were obtained from Addgene and transfected into C2C12 cells using Lipofectamine LTX with Plus Reagent (ThermoFisher) according to manufacturer's instructions and cell extracts analyzed for protein expression and activity as described below.

C2C12 cells = assay: C2C12 culture morphology and survival under treatment; format: cell-based, mouse; design: effect of continued treatment on C2C12 culture: dose or concentration left out as unconfirmed
MKK3/6 = assay: Western blotting of MKK3/6 in BRITER cells; format: cell-based, mouse
Procedure: as §1, §2

p38-β = assay: Isoform-specific immunoprecipitation, p38-β activity in C2C12 cells; format: cell-based, mouse; details: C2C12, 10 μM DIPQUO
Source text: There are four separate p38 isoforms: α, β, γ, and δ. The respective roles of the α and β isoforms in bone differentiation have been dissected to the extent that p38-β is known to be involved specifically in skeletogenesis (Greenblatt et al., 2010), while p38-α has roles that are both wide-ranging and highly specific, for instance in dentition (Greenblatt et al., 2015). Accordingly, we used small interfering RNA-mediated knockdown to probe the specificity of DIPQUO to block the activity of one or the other isoform (FIG. 6E). […] To confirm the biological significance of this observation, the α and β isoforms were immunoprecipitated from C2C12 cells and analyzed for relative activity levels.

p38 MAPK [5] = assay: Western blotting of p38 MAPK phosphorylation in C2C12 cells; format: cell-based, mouse
Procedure: as §3

[6] = tested on: alkaline phosphatase (ALP); assay: ALP expression staining in C2C12 cells; format: cell-based, mouse; details: C2C12, 2 days, 10 μM
Procedure: C2C12 cells were treated for 2 days with 10 μM DIPQUO or structural analogs, 1 ng/ml rhBMP4, or with inhibitors as noted in figure legends, and then fixed briefly in 70% acetone/10% formaldehyde/20% citrate. Staining was achieved using the leukocyte alkaline phosphatase kit (Sigma 86R-1KT) according to the manufacturer's instructions. Expression of ALP was confirmed and quantified by flow cytometric analysis, using an Accuri C6 flow cytometer. Briefly, control- or DIPQUO-treated C2C12 cells were detached and harvested on day 2 using PBS-based enzyme-free cell detachment solution (ThermoFisher). 2×10^5 cells were incubated on ice for 30 minutes with 10 μl APC-conjugated ALPL antibody (R&D Systems), and washed in ice-cold PBS before analysis. Live cells were gated and analyzed in CFlow Plus software and then data was converted to FlowJo to achieve publication-level resolution. For siRNA experiments, gene-specific oligonucleotides were obtained for mouse p38-alpha (Cell Signaling) and p38-beta (Santa Cruz). Signal Silence scramble siRNA control oligonucleotide was purchased from Cell Signaling. C2C12 cells at 70% confluency were transfected in 12-well plates using Lipofectamine RNAiMax reagent (Invitrogen) according to manufacturer's instructions. Transfected cells were treated 24 hours later with DMSO or 10 μM DIPQUO, and siRNA transfection was repeated after 48 hours without changing culture media. After an additional 3 days, cells were either fixed and stained for ALP expression or analyzed for ALP activity using the AttoPhos Substrate kit. Hemagglutinin and FLAG epitope-tagged MKK3 (pMT2-HA-MKK3) and MKK6 (pcDNA3-FLAG-MKK6) constructs were obtained from Addgene and transfected into C2C12 cells using Lipofectamine LTX with Plus Reagent (ThermoFisher) according to manufacturer's instructions and cell extracts analyzed for protein expression and activity as described below.

Compound: Cc1cc(C)c2[nH]c(=O)c(-c3[nH]cnc3-c3ccccc3)cc2c1 [RU-0226606, 6,8-dimethyl-3-(4-phenyl-1H-imidazol-5-yl)quinolin-2(1H)-one]
- p38 MAPK activation in BRITER cells (p38 MAPK [1]): maintained the ability to activate p38 MAPK even under conditions of BMP repression
- EC50 ([2]; C2C12): 9.3 µM
- activation at 10 µM [2]: 100%
- activation at 10 µM ([2]; read-out: NPA Score Threshold ≥ 5.0 (normalized percent activation)): 8.78%
- EC50 ([2]; C2C12, read-out: Measured EC50): 8.6 µM
- EC50 ([2]; C2C12, read-out: half maximal effective concentration in C2C12 cells): 6.27 µM
- JNK p54 signaling (JNK p54): suppressed the p54 isoform
- other pathways (PI3K/Akt, ERK, TGF-β/SMAD2/3, BMP/SMAD1/5/9) [3]: no change observed
- ALP-expressing fraction of the cell culture (flow cytometry) [4]: > 30%
- cellular morphology (C2C12 cells; C2C12): rapid rearrangement of cellular architecture from fibroblast-like to a cuboidal phenotype
- effect of continued treatment on C2C12 culture (C2C12 cells; continued treatment, partially rescued by IGF-1): attrition of the C2C12 culture
- phosphorylation of MKK3/6 (MKK3/6): stimulated rapid phosphorylation of MKK3/6
- p38-β isoform activity after immunoprecipitation (p38-β): significantly activated
- p38 MAPK signaling (phosphorylation) (p38 MAPK [5]; C2C12, western blotting): selectively activated p38 MAPK signaling
- concentration at which effects on p38 MAPK and JNK pathway activation overlap (p38 MAPK [5]; dose-response, western blotting, 6-8 hours of treatment): 5 to 10 µM
- ALP expression by staining [6]: rapidly stimulate ALP expression within 2 days
